Test results taken from patent publication US4547508A, “1-Phenylisoquinoline derivatives, pharmaceutical products containing these compounds and their use” (Hoechst Aktiengesellschaft, priority 1982, dated 1985).

Legend:
[1] = Acute toxicity in the mouse after intraperitoneal administration (ALD50); parameters: species or system male mice (Gassner, NMRI); conditions: in vivo, ip, deaths within 24 hours after administration
Description: A. Acute toxicity in the mouse after intraperitoneal administration (ALD50)
The experimental animals used were male mice (Gassner, NMRI) of body weight 20-30 g. 6 animals were tested in each group. The compounds were suspended in 1% strength methylhydroxyethylcellulose (MH) and administered intraperitoneally (i.p.) to the animals in a volume of 10 ml/kg of body weight. The compounds according to the invention were administered in doses of 3, 10, 30 and 100 mg/kg i.p.
The acute lethal dose (ALD50) was determined graphically from the number of animals which died within 24 hours after administration of the compound.

[2] = tested on: tetrabenazine-induced ptosis; experiment: Prevention of the ptosis induced by tetrabenazine in mice after intraperitoneal administration; assay type: in vivo, male mice (Gassner, NMRI); conditions: ip; mouse, i.p., 30 minutes before TBZ 40 mg/kg i.p.; dose which reduces the mean ptosis index (maximum 4) by 50%
Description: B. Prevention of the ptosis induced by tetrabenazine in mice after intraperitoneal administration
The experimental animals used were male mice (Gassner, NMRI) of body weight 20-26 g. 5 animals were tested in each group. The compounds were suspended in 1% strength methylhydroxyethylcellulose and administered intraperitoneally (i.p.) to the animals in a volume of 10 ml/kg of body weight. The compounds according to the invention were tested in doses of 5, 10 and 20 mg/kg i.p. The control group merely received 10 ml/kg of MH not containing active ingredient i.p.
The componds were administered to the animals 30 minutes before the i.p. administration of tetrabenazine (TBZ). The control group merely received 1% strength MH and TBZ in accordance with the same schedule as that for the animals treated with the test substances.
30 minutes after the TBZ injection (TBZ: 40 mg/kg i.p.), the animals were placed in individual plastic boxes and the ptosis was assessed 1 minute later in accordance with the scheme below:
Eyes closed = 4 (100% ptosis)
Eyes 3/4 closed = 3 (75% ptosis)
Eyes 1/2 closed = 2 (50% ptosis)
Eyes 1/4 closed = 1 (25% ptosis)
Eyes open = 0 (0% ptosis)
The dose defined as the ED50 is that which reduces the mean ptosis index (maximum 4) by 50%.

[3] = tested on: norepinephrine uptake (synaptosomes from rat brain); experiment: Inhibition of reuptake of norepinephrine in synaptosomes; assay type: biochemical; conditions: 14C-norepinephrine, pH 7.4, 37° C., 4 minutes
Description: C. Inhibition of reuptake of norepinephrine in synaptosomes
Synaptosomes from rat brain were isolated by the method of Whittaker (Handbook of Neurochemistry 2, 327-364, Editor A. Lajtha; London and New York, 1969) and the uptake of monoamine was measured by the method of Schacht and Heptner (Biochemical Pharmac. 23, 3413-3422). The ^14 C-norepinephrine uptake was measured in a Krebs-Henseleit bicarbonate buffer pH 7.4 which contained 11 millimoles of glucose. 2.5 ml of the suspension of synaptosomes were incubated with labeled norepinephrine at 37° C. in the presence or absence of the test substance. The incubation time was 4 minutes. Further uptake was then stopped by cooling in ice. In order to exclude non-specific adsorption, control samples were incubated at 0° C. under otherwise identical conditions.
The amounts of norepinephrine taken up were measured using the membrane filtration technique using a Millipore sampling manifold with cellulose nitrate filters of 25 mm diameter and 0.6 micrometer pore size. The synaptosomes were collected under reduced pressure and the radioactivity was determined in a Packard Tricarb scintillation counter. The amount of collected norepinephrine has been reported as a percentage of the radioactivity which was added to the incubation mixture.
The IC50 values (inhibition concentration) in the Table 1 below indicate the concentration of the test substances which show 50% inhibition of the uptake of ^14 C-norepinephrine.

| Structure (SMILES) | LD50 at 24 h [1] [mg/kg] | ED50 [2] [mg/kg] | IC50 [3] [nM] |
| --- | --- | --- | --- |
| C=CCN1CCC(c2cc3ccccc3c(-c3ccccc3C)n2)CC1 [Example 23, 3-(1-Allyl-4-piperidinyl)-1-(2-methylphenyl)isoquinoline] | 55 | 3 |  |
| CN1CC=C(c2cc3ccccc3c(-c3ccccc3Cl)n2)CC1 [Example 6] | 100 | 0.79 | 33 |
| CCN1CC=C(c2cc3ccccc3c(-c3ccccc3C)n2)CC1 [Example 2, 3-(1-Ethyl-1,2,5,6-tetrahydro-4-pyridyl)-1-(2-methylphenyl)isoquinoline] | 100 | 1.4 |  |
| CN1CCC=C(c2cc3ccccc3c(-c3ccccc3)n2)C1 [Example 19] | 40 | 3.3 | 50 |
| Cc1ccccc1-c1nc(C2CCN(C)CC2)cc2ccccc12 [Example 27] | 27 | 0.53 |  |
| CN1CC=C(c2cc3ccccc3c(-c3ccccc3F)n2)CC1 [Example 8] | 85 | 0.54 | 10 |
| C1=C(c2cc3ccccc3c(-c3ccccc3)n2)CCNC1 [Example 13] | 300 | 0.5 | 6.2 |
| CN1CCC(c2cc3ccccc3c(-c3ccccc3)n2)CC1 [Example 25] | 28 | 6.59 |  |
| Cc1ccccc1-c1nc(C2=CCNCC2)cc2ccccc12 [Example 3, 1-(2-Methylphenyl)-3-(1,2,5,6-tetrahydro-4-pyridyl)isoquinoline] | 210 | 0.13 | 5.6 |
| c1ccc(-c2nc(C3CCNCC3)cc3ccccc23)cc1 [Example 21, 1-Phenyl-3-(4-piperidinyl)isoquinoline] | 75 | 0.8 | 17 |
| C=CCN1CC=C(c2cc3ccccc3c(-c3ccccc3C)n2)CC1 [Example 11] | 300 | 0.49 |  |
| C1=C(c2cc3ccccc3c(-c3ccccc3)n2)CNCC1 [Example 20] | 75 | 0.33 | 13 |
